Consider 49 molecules from US20250092056A1, “URACIL DERIVATIVES HAVING VIRUS REPLICATION INHIBITORY ACTIVITY AND PHARMACEUTICAL COMPOSITION COMPRISING THE SAME” (Shionogi & Co., Ltd., priority 2022, published 2025).

“And” between values parts separate entries of the source, which are not always exact repeats. Equal values may be shown once. Read-outs that look alike come from different tables or passages of the source.

For orientation: IC50 means the point on the concentration scale where inhibition reaches its midpoint.

Test [1] has as its target Recombinant SARS-CoV-2 3CL Protease (Severe acute respiratory syndrome coronavirus 2 (2019-nCoV) (SARS-CoV-2), UniProt P0DTD1). Put plainly: biochemical. The format is biochemical. The following applies: 50% SARS-CoV-2 3CL protease inhibitory concentration; read-out: IC50.
The next test concerns SARS-CoV-2. Put plainly: Cytopathic effect (CPE) suppression effect confirmation test using HEK293T/ACE2-TMPRSS2 cells. The format is cell-based. Particulars: Severe acute respiratory syndrome coronavirus 2, HEK-293T.
Where [2] appears, read: 72 h, read-out: EC50 (50% SARS-CoV-2 infected cell death inhibitory concentration), class, HEK293T/ACE2-TMPRSS2 cells, CPE suppression, CellTiter-Glo 2.0 after 3 days culture.
[3] abbreviates: 72 h, HEK293T/ACE2-TMPRSS2 cells, CPE suppression, CellTiter-Glo 2.0 after 3 days culture, read-out: EC50 (50% SARS-CoV-2 infected cell death inhibitory concentration), class.
Where [4] appears, read: 72 h, read-out: EC50 (50% SARS-CoV-2 infected cell death inhibitory concentration), HEK293T/ACE2-TMPRSS2 cells, CPE suppression, CellTiter-Glo 2.0 after 3 days culture.
Setting [5] is: 50% SARS-CoV-2 infected cell death inhibitory concentration, HEK293T/ACE2-TMPRSS2 cells, read-out: EC50.

Take `Cc1cncc(-n2c(=O)c(Cc3cc(F)c(F)c(F)c3)c(Cl)n(C(C)C#N)c2=O)c1` (racemic) [Compound I-046]: the IC50 in test [1] is above 100 nM.
On to `Cc1cncc(-n2c(=O)c(Cc3cc(F)c(F)c(F)c3)c(-c3ccc(C)c(C)c3)n(C(F)C#N)c2=O)c1` (racemic) [Compound I-048], for which the EC50 in the test on SARS-CoV-2 (setting [2]) lay in the range of 1000 to 5000 nM. Further, the IC50 in test [1] was above 100 nM.
As to `CC(C)(C)OC(=O)C(C#N)n1c(N2CCC(C(F)(F)F)CC2)c(-c2ccc(F)c(Cl)c2)c(=O)n(-c2cncc(Cl)c2)c1=O` (racemic) [Compound I-050], in the test on SARS-CoV-2 (setting [3]), the EC50 was below 100 nM. The IC50 in test [1] is 10 to 100 nM.
On to `N#CCn1c(N2CCC3(CNC(=O)C3)C2)c(-c2ccc(F)c(Cl)c2)c(=O)n(-c2cnc3cc(Cl)ccn23)c1=O` (racemic) [Compound I-051], for which, in the test on SARS-CoV-2 (setting [3]), the EC50 was in the range of 1000 to 5000 nM. Further, in test [1], the IC50 fell in the range of 10 to 100 nM.
Taken in the same sequence, the figures for `Cc1cncc(-n2c(=O)c(Cc3cc(F)c(F)c(F)c3)c(N3CC4(CCOC4)C3)n(C(C)C#N)c2=O)c1` (racemic) [Compound I-054] were below 100 nM and 10 to 100 nM.
As to `Cc1cncc(-n2c(=O)c(Cc3cc(F)c(F)c(F)c3)c(-c3ccc(C)c(C)c3)n(C(C#N)C(=O)O)c2=O)c1` (racemic) [Compound I-056], the EC50 with SARS-CoV-2 (setting [3]) is below 100 nM. Further, the IC50 in test [1] fell in the range of 10 to 100 nM.
`Cc1cncc(-n2c(=O)c(Cc3cc(F)c(F)c(F)c3)c(-c3ccc(C)c(C)c3)n(C(C)C#N)c2=O)c1` (racemic) [Compound I-057]: the EC50 in the test with SARS-CoV-2 (setting [4]) stood at 29 nM. Also, the IC50 in test [1] is 9.8 nM.
In the case of `N#CCn1c(N2CCC3(CCC(=O)N3)C2)c(-c2ccc(F)c(Cl)c2)c(=O)n(-c2cncc(Cl)c2)c1=O` (racemic) [Compound I-061], the EC50 with SARS-CoV-2 (setting [2]) fell in the range of 100 to 1000 nM. In addition, the IC50 in test [1] was below 10 nM.
Taken in the same sequence, the figures for `N#CCn1c(N2CC3CNC(=O)C3C2)c(-c2ccc(F)c(Cl)c2)c(=O)n(-c2cncc(Cl)c2)c1=O` (racemic) [Compound I-062] were below 100 nM and below 10 nM.
With `N#CCn1c(N2CCC3(CNC(=O)C3)C2)c(-c2ccc(F)c(Cl)c2)c(=O)n(-c2cncc(Cl)c2)c1=O` (racemic) [Compound I-063], the EC50 in the test with SARS-CoV-2 (setting [2]) fell in the range of 100 to 1000 nM. Further, the half-inhibitory concentration (IC50) in test [1] is below 10 nM.
Taken in the same sequence, the figures for `Cc1cncc(-n2c(=O)c(-c3ccc(F)c(Cl)c3)c(N3CCC4(CCOC4)C3)n(CC#N)c2=O)c1` (racemic) [Compound I-070] were below 100 nM and below 10 nM.
On to `Cc1cncc(N2C(=O)N(CC#N)CC3(CCOc4ccc(Cl)cc43)C2=O)c1` (racemic) [Compound I-088], for which the EC50 in the test with SARS-CoV-2 (setting [4]) came out at 97.2 nM. Moreover, in test [1], the IC50 is 71 nM.
On to `Cc1cncc(-n2c(=O)c(Cc3cc(F)c(F)c(F)c3)c(N3CCC(C#N)C3)n(CC#N)c2=O)c1` (racemic) [Compound I-092], for which the EC50 with SARS-CoV-2 (setting [3]) is below 100 nM. Further, the IC50 in test [1] was 10 to 100 nM.
Taken in the same sequence, the figures for `Cc1cncc(-n2c(=O)c(Cc3cc(F)c(F)c(F)c3)c(N3CCC4(CCC(=O)N4)C3)n(CC#N)c2=O)c1` (racemic) [Compound I-094] were 100 to 1000 nM and 10 to 100 nM.
Taken in the same sequence, the figures for `Cc1cncc(-n2c(=O)c(Cc3cc(F)c(F)c(F)c3)c(N3CCC4(C3)NC(=O)NC4=O)n(CC#N)c2=O)c1` (racemic) [Compound I-095] were 1000 to 5000 nM and 10 to 100 nM.
Consider `Cc1cncc(-n2c(=O)c(Cc3cc(F)c(F)c(F)c3)c(N3CCCC(C(F)(F)F)C3)n(CC#N)c2=O)c1` (racemic) [Compound I-097], for which, in the test on SARS-CoV-2 (setting [2]), the EC50 was below 100 nM. In addition, the IC50 in test [1] was below 10 nM.
With `Cc1cncc(-n2c(=O)c(Cc3cc(F)c(F)c(F)c3)c(N3CCC(C(N)=O)C3)n(CC#N)c2=O)c1` (racemic) [Compound I-100], the EC50 with SARS-CoV-2 (setting [2]) is below 100 nM. Besides, the half-maximal inhibitory concentration (IC50) in test [1] was below 10 nM.
On to `COC1CCN(c2c(Cc3cc(F)c(F)c(F)c3)c(=O)n(-c3cncc(C)c3)c(=O)n2CC#N)C1` (racemic) [Compound I-102], for which, in the test on SARS-CoV-2 (setting [2]), the EC50 was below 100 nM. In addition, in test [1], the half-maximal inhibitory concentration (IC50) is below 10 nM.
Taken in the same sequence, the figures for `Cc1cncc(-n2c(=O)c(Cc3cc(F)c(F)c(F)c3)c(N3CC4CC(F)(F)C4C3)n(CC#N)c2=O)c1` (racemic) [Compound I-103] were below 100 nM and below 10 nM.
Taken in the same sequence, the figures for `Cc1cncc(-n2c(=O)c(Cc3cc(F)c(F)c(F)c3)c(N3CCC(C(F)F)C3)n(CC#N)c2=O)c1` (racemic) [Compound I-107] were below 100 nM and below 10 nM.
In the case of `Cc1cncc(-n2c(=O)c(Cc3cc(F)c(F)c(F)c3)c(N3CCC(S(N)(=O)=O)C3)n(CC#N)c2=O)c1` (racemic) [Compound I-108], the EC50 in the test on SARS-CoV-2 (setting [2]) lay within 100 to 1000 nM. Further, the IC50 in test [1] was below 10 nM.
Take `N#CCn1c(N2Cc3ccccc3C2)c(-c2cccc(Cl)c2)c(=O)n(C2CCn3cnnc32)c1=O` (racemic) [Compound I-121]: the IC50 in test [1] was above 100 nM.
Consider `CC1(c2ccc(F)c(Cl)c2)CN(CC#N)C(=O)N(c2cncc(Cl)c2)C1=O` (racemic) [Compound I-283], for which the IC50 in test [1] was < 10 nM and > 100 nM.
Same read-out and setting: the same measure for `N#CCn1c(N2CC3(CCOC3)C2)c(Cc2cc(F)c(F)c(F)c2)c(=O)n(CCC(N)=O)c1=O` [Compound I-001]: above 100 nM; for `Cn1cnc(Cn2c(=O)c(Cc3cc(F)c(F)c(F)c3)c(N3Cc4cn[nH]c4C3)n(CC#N)c2=O)n1` [Compound I-002]: above 100 nM; for `Cc1cncc(-n2c(=O)c(Cc3cc(F)c(F)c(F)c3)c(OC(C(F)(F)F)C(F)(F)F)n(CC#N)c2=O)c1` [Compound I-004]: above 100 nM.
Same read-out and setting: the same measure for `Cc1cncc(-n2c(=O)c(Cc3cc(F)c(F)c(F)c3)c(Cl)n(CC#N)c2=O)c1` [Compound I-013]: 10 to 100 nM.
`Cc1cncc(-n2c(=O)c(-c3ccc(F)c(Cl)c3)c(-c3ccc(C(=O)O)cc3)n(CC#N)c2=O)c1` [Compound I-024]: in test [1], the IC50 was above 100 nM.
On to `N#CCn1c(N2CC3(C2)CC(F)(F)C3)c(-c2ccc(F)c(Cl)c2)c(=O)n(-c2cncc(Cl)c2)c1=O` [Compound I-077], for which the EC50 with SARS-CoV-2 (setting [4]) worked out at 1.66 nM.
As to `N#CCn1c(N2CC(n3cccn3)C2)c(-c2ccc(F)c(Cl)c2)c(=O)n(-c2cncc(Cl)c2)c1=O` [Compound I-080], the IC50 in test [1] is below 10 nM.
Same read-out and setting: the same measure for `N#CCn1c(N2CCN(c3ccccc3)C(=O)C2)c(-c2ccc(F)c(Cl)c2)c(=O)n(-c2cncc(Cl)c2)c1=O` [Compound I-081]: above 100 nM; for `Cn1cnc(Cn2c(=O)c(Cc3cc(F)c(F)c(F)c3)c(N3CC4(CCOC4)C3)n(CC#N)c2=O)n1` [Compound I-089]: above 100 nM.
Turning to `Cc1cncc(-n2c(=O)c(Cc3cc(F)c(F)c(F)c3)c(N3C[C@@H]4[C@H](C3)C4(F)F)n(CC#N)c2=O)c1` [Compound I-099], the EC50 in the test on SARS-CoV-2 (setting [3]) is below 100 nM.
For `Cc1cc(-n2c(=O)c(Cc3cc(F)c(F)c(F)c3)c(N3CC4(CCOC4)C3)n(CC#N)c2=O)cc(=O)[nH]1` [Compound I-123], in test [1], the IC50 is above 100 nM.
Still for that read-out and setting: the same measure for `N#CCn1c(Cl)c(-c2ccc(F)c(Cl)c2)c(=O)n(-c2cnc3ccc(F)cn23)c1=O` [Compound I-125]: above 100 nM; for `CC1(C)CN(c2c(-c3ccc(F)c(Cl)c3)c(=O)n(-c3cnc4cc(F)ccn34)c(=O)n2CC#N)C1` [Compound I-154]: below 10 nM.
Still for that read-out and setting: the same measure for `N#CCn1c(N2Cc3ccccc3C2)c(Cc2cc(F)c(F)c(F)c2)c(=O)n(-c2cncc(=O)[nH]2)c1=O` [Compound I-158]: 10 to 100 nM.
The same measure, in the same setting: the same measure for `N#CCn1c(N2CC3(CCOC3)C2)c(-c2ccc(F)c(Cl)c2)c(=O)n(-c2cc(C(F)(F)F)[nH]c(=O)c2)c1=O` [Compound I-186]: 10 to 100 nM; for `N#CCn1c(N2CC3(CCOC3)C2)c(-c2ccc(F)c(Cl)c2)c(=O)n(-c2cc(Cl)[nH]c(=O)c2)c1=O` [Compound I-187]: 10 to 100 nM.
In the case of `Cc1cncc(-n2c(=O)c(-c3ccc(F)c(Cl)c3)c(N3CC4(CCOCC4)C3)n(CC#N)c2=O)n1` [Compound I-193], the EC50 in the test on SARS-CoV-2 (setting [3]) was below 100 nM.
The same measure, in the same setting: the same measure for `Cc1cncc(-n2c(=O)c(-c3ccc(F)c(Cl)c3)c(N3CCC(C(F)F)CC3)n(CC#N)c2=O)n1` [Compound I-194]: below 100 nM.
With `N#CCn1c(N2CC3(C2)CC(F)(F)C3)c(-c2ccc(F)c(Cl)c2)c(=O)n(-c2cc(=O)cc(Br)[nH]2)c1=O` [Compound I-222], the IC50 in test [1] was above 100 nM.
Take `N#CCn1c(N2CCCC2)c(-c2ccc(F)c(Cl)c2)c(=O)n(-c2cncc(Cl)c2)c1=O` [Compound I-252]: in test [1], the half-inhibitory concentration (IC50) is below 10 nM.
For `N#CCn1c(N2CCc3ccccc3C2)c(-c2ccc(F)c(Cl)c2)c(=O)n(-c2cncc(Cl)c2)c1=O` [Compound I-253], the EC50 in the test with SARS-CoV-2 (setting [5]) was below 100 nM.
Turning to `N#CCn1c(N2CCCCC2)c(-c2ccc(F)c(Cl)c2)c(=O)n(-c2cncc(Cl)c2)c1=O` [Compound I-254], the half-maximal inhibitory concentration (IC50) in test [1] was below 10 nM.
Take `Cc1cncc(-n2c(=O)c(-c3ccc(F)c(Cl)c3)c(-c3ccccc3)n(CC#N)c2=O)c1` [Compound I-268]: in the test on SARS-CoV-2 (setting [5]), the EC50 was below 100 nM.
The same measure, in the same setting: the same measure for `Cc1cncc(-n2c(=O)c(-c3ccc(F)c(Cl)c3)c(-c3ccc(C4CC4)nc3)n(CC#N)c2=O)c1` [Compound I-269]: below 100 nM.
As for `Cc1cc(-n2c(=O)c(-c3ccc(F)c(Cl)c3)c(Cl)n(CC#N)c2=O)c[n+]([O-])c1` [Compound I-277], the IC50 in test [1] is above 100 nM.
In the case of `N#CCn1c(N2CC3(CCOC3)C2)c(C2CCCCC2)c(=O)n(-c2cncc(Cl)c2)c1=O` [Compound I-285], the IC50 in test [1] was above 100 nM.
